The source of these data is patent US11389483B2, “Methods for treating pain” (Duke University, priority 2015, dated 2022).

Test [1] relates to BMSCs. Kind of test: Transwell migration (chemotaxis) assay. It is filed as cell-based, mice. The procedure:
The migratory ability of BMSCs was determined using Transwell plates (Corning Costar, 6.5 mm in diameter with 8 μm pore filters). In brief, 5×10^4 cells in 100 μL, serum-free medium were added into the upper well, and 600 μL, of CXCL12-containing medium was placed in the lower well of a Transwell plate. Following incubation for 5 h (37° C., 100% humidity, 5% CO2 in air), the number of cells that had migrated to the lower side of the filter was counted under a light microscope at ×200 magnification, and the data were presented as the average number of migratory in five randomly-selected fields. Each experiment was performed in triplicate, and the data were averaged for statistical analysis.

Test [2] has as its system small-sized DRG neurons. Kind of test: Whole-cell patch clamp recordings of action potentials in whole mount DRG. It is filed as cell-based, mice. The procedure:
The L4-L5 whole mount DRGs were carefully removed from the vertebral column and placed in cold oxygenated ACSF as detailed in Lee et al. (Cell 2014, 157, 1393-1404). The connective tissue was gently removed under a microscope and the ganglia were digested with a mixture of 1.0 mg/mL protease and 1.6 mg/mL collagenase (Sigma) for 30 min at 37° C. The ganglion was transferred into a holding chamber containing normal Mg2+-free ACSF with CNQX (2 μM) bubbled with 95% O2 and 5% CO2 at room temperature. Whole-cell current clamp recordings were performed at room temperature (28° C.) to measure action potentials with Axopatch-200B amplifier (Axon Instruments). The patch pipettes were pulled from borosilicate capillaries (Chase Scientific Glass Inc.). When filled with the pipette solution, the resistance of the pipettes was 4-5 MΩ. The recording chamber (300 μL) was continuously superfused (3-4 mL/min). Series resistance was compensated for (>80%), and leak subtraction was performed. Data were low-pass-filtered at 2 KHz, sampled at 10 KHz. The pClamp10 (Axon Instruments) software was used during experiments and analysis.

The subject of test [3] is CCI mice. Kind of test: CCI neuropathic pain model: mechanical allodynia (von Frey) and thermal hyperalgesia (Hargreaves). Format: in vivo. The source says: Adult CD1 mice (male, 25-32 g) were purchased from Charles River Laboratories and used for behavioral studies and primary cultures of BMSCs. Neuropathic pain was produced by chronic constriction injury of the sciatic nerve (CCI) (Bennett, et al. J. Neurosci. 1998, 18, 3059-3072) and spared nerve injury (SNI) (Decosterd, et al. Pain 2000, 87, 149-158). For producing the CCI model animals were anesthetized with isoflurane, the left sciatic nerve was exposed, and three ligatures (7-0 prolene) were placed around the nerve proximal to the trifurcation with one millimeter between each ligature. The ligatures were loosely tied until a short flick of the ipsilateral hind limb was observed. Animals in the sham group received surgery identical to those described but without nerve ligation. Under isoflurane anesthesia, the SNI surgery was also performed with a 5.0 silk tight ligation of the tibial and common peroneal nerves followed by transection and removal of a 3-5 mm nerve portion. However, the third peripheral branch of the sciatic nerve, the sural nerve, remained intact, and any contact or stretch to this nerve was carefully avoided. All the animal procedures performed in this study were approved by the Animal Care Committee of Duke University Medical Center. TGF-β1, […] neutralizing antibody, TNF and CXCL12/SDF-1α were purchased from R&D, LPS from Sigma. AMD3100 (CXCR4 antagonist) and SB431542 (TGF-β1R inhibitor) were purchased from Selleckchem. IL-10 neutralizing antibody was purchased from Biolegend, and normal Rabbit IgG were purchased from Santa Cruz. For intrathecal injection, spinal cord puncture was made with a 30-G needle between the L5 and L6 level to deliver reagents (10 μL) or cells (1 or 2.5×10^5 cells in 10 μL PBS) to the cerebral spinal fluid (Hylden, et al. Eur. J. Pharmacol. 1980, 67, 313-316). […] Cells were then washed three times with PBS and resuspended. Animals were habituated to the testing environment daily for at least 2 days before baseline testing. The room temperature and humidity remained stable for all experiments. All the behaviors were tested blindly. For testing mechanical sensitivity, mice were confined in boxes placed on an elevated metal mesh floor and their hindpaws were stimulated with a series of von Frey hairs with logarithmically increasing stiffness (0.02-2.56 g, Stoelting), presented perpendicularly to the central plantar surface. The 50% paw withdrawal threshold was determined by Dixon's up-down method. Mechanical allodynia after SNI was also assessed by frequency response (expressed as percentage response) to a low-threshold von Frey hair (0.16 g, 10 times). […] The falling latency was recorded and averaged.

In test [4] the test system is lamina IIo neurons of spinal cord slices. The experiment in a line: Patch-clamp recordings of sEPSCs in spinal cord slices. Format: cell-based, mice. The procedure:
A portion of the lumbar spinal cord (L4-L5) was removed from mice (4-7 weeks old) under urethane anesthesia (1.5-2.0 g/kg, i.p.) and kept in pre-oxygenated ice-cold Krebs solution (Xu, et al. Ann. Neurol. 2013, 74, 490-495). Transverse slices (400-600 μm) were cut on a vibrating microslicer. The slices were perfused with Kreb's solution (8-10 mL/min) that was saturated with 95% O2 and 5% CO2 at 36° C. for at least 1-3 h prior to experiment. The Kreb's solution contained (in mM): NaCl 117, KCl 3.6, CaCl2 2.5, MgCl2 1.2, NaH2PO4 1.2, NaHCO3 25, and […]. The whole-cell patch-clamp recordings were made from lamina IIo neurons in voltage-clamp mode. Patch pipettes were fabricated from thin-walled, borosilicate, glass-capillary tubing (1.5 mm outer diameter; World Precision Instruments). After establishing the whole-cell configuration, neurons were held their holding potentials at −70 mV for recording sEPSCs. The resistance of a typical patch pipette is 5-10 M. The internal solution contained the following (in mM): 135 potassium gluconate, 5 KCl, 0.5 CaCl2, 2 MgCl2, 5 EGTA, 5 HEPES, and 5 ATP-Mg. Membrane currents were amplified with an Axopatch 200 A amplifier (Molecular Devices) in voltage-clamp mode. Signals were filtered at 2 kHz and digitized at 5 kHz. Data were stored with a personal computer using pClamp 6 software and analyzed with Mini Analysis (Synaptosoft).

For test [5], the system named is CCI mice. The experiment in a line: Two-chamber conditioned place preference test for ongoing pain after CCI. It is filed as in vivo. As to conditions: clonidine 10 μg i.t. The text has this: To test spontaneous/ongoing pain measurement, a single trial conditioning protocol for conditioned place preference (CPP) was used as described in King et al. (Nat. Neurosci. 2009, 12, 1364-1366) and Xu et al. (Ann. Neurol. 2013, 74, 490-495). All mice underwent a 3-day pre-conditioning habituation and animal behavior was video-recorded. […] On the conditioning day, mice received the vehicle (saline) control paired with a randomly chosen chamber in the morning, and then the appropriate treatment (clonidine, 10 μg, i.t.) paired with the other chamber 4 h later. Chamber pairings were counterbalanced. On the test day, 20 h following the afternoon pairing, mice were placed in the CPP box with access to both chambers and the behavior was recorded for 15 min and analyzed by ANY-maze software for chamber preference.

Test [6] concerns PAX-induced mechanical allodynia in mice. The experiment in a line: Paclitaxel (PAX)-induced neuropathic pain model: paw withdrawal frequency to von Frey hair (0.4 g). It is filed as in vivo. As to conditions: i.t. TGF-β1 100 ng, 7 weeks after first paclitaxel injection. Here is the method:
PAX-induced neuropathic pain (mechanical allodynia) was evaluated by paw withdrawal frequency to von Frey hair (0.4 g) stimuli (10×). Intrathecal BMSCs (2.5×10^5) produced a rapid (1 week) and long lasting (7 weeks) reduction in PAX-induced mechanical allodynia (FIG. 19B).
The analgesic efficacy of TGF-β1 was also tested in a PAX-induced neuropathic pain model. […] PAX-induced neuropathic pain was evaluated by paw withdrawal frequency to von Frey hair (0.4 g) stimuli (10×). Intrathecal TGF-β1 transiently reversed PAX-induced mechanical allodynia for 3 hours following injection (FIG. 20).

Test [7] relates to IL-10. Kind of test: ELISA of IL-10 release in BMSCs culture medium. It is filed as cell-based, mice. To be noted: TNF 10 ng/mL, 60 min, LPS 100 ng/mL. Here is the method:
(§1) Primary cultures of BMSCs were obtained from CD-1 donor mice under aseptic conditions. The mice were sacrificed with isoflurane and the both ends of the tibiae and femurs were cut off by scissors. A syringe fitted with 20-gauge needle was inserted into the shaft of the bone, and bone marrow was flushed out with culture medium (modified Eagle's medium containing 10% fetal bovine serum, 2 mM L-glutamine, 100 U/mL penicillin and 100 μg/mL streptomycin, 250 μg/mL Fungizone, all obtained from Gibco). After the centrifuge at 1000 g for 5 min at room temperature, the pellet was resuspended in 2 mL fresh warm culture medium and mechanically dissociated, and the suspension was passed through a 40-μm cell strainer to remove debris. After the centrifuge the cells were resuspended at a concentration of 1×10^6 cells/mL. The cells were then incubated at 37° C. in 5% CO2 in 75 cm2 cell culture flasks or 6-well culture plates. After 24 hours, cells were washed gently with PBS and replaced with fresh culture media. Adherent cells were further cultured with a medium change every 2-3 days until confluence was reached (also see FIG. 11).
Mouse TGF-β1, IL-10, and CXCL12/SDF-1α ELISA kits were purchased from R&D Systems. ELISA was performed using BMSCs culture medium or cell lysate, CSF, and DRG tissue. Cultured cells and DRGs were homogenized in a lysis buffer containing protease and phosphatase inhibitors. […]

Test [8] has as its system TGF-β1. The experiment in a line: ELISA of TGF-β1 release and expression in BMSCs cultures. It is filed as cell-based, mice. As to conditions: TNF 10 ng/mL, 60 min, LPS 100 ng/mL. Here is the method:
Tgfβ1 siRNA (Catalog: J-040652-06), Cxcr4 siRNA (Catalog: J-060184-06) and Non-targeting siRNA (Catalog: D-0018100-01-20) were purchased from Thermo Scientific Dharmacon. SiRNA was dissolved in RNase-free water at 1 μg/μL as stock solution and mixed with transfection reagent polyethyleneimine (PEI, Fermentas) and normal saline before use. Specifically, 1 μg siRNA was dissolved in 3.3 μL of PEI and 66 μL of normal saline (Kawasaki, et al. Nat. Med. 2008, 14, 331-336).
as §1, with “After 24 hours, cells were washed gently with PBS and replaced with fresh culture media. Adherent cells were further cultured with a medium change every 2-3 days until confluence was reached (also see FIG. 11).” left out

For `c1cc(CN2CCCNCCNCCCNCC2)ccc1CN1CCCNCCNCCCNCC1` [AMD3100], the “CXCL12-induced migration of BMSCs” value in test [1] (AMD3100 5 mg/L 30 min) is reported as “blocked”.

Take `NC(=O)c1ccc(-c2nc(-c3ccc4c(c3)OCO4)c(-c3ccccn3)[nH]2)cc1` [SB431542, reference compound]: the “effect on the TGF-β1 suppression of spike frequency” value in test [2] (SB431542 10 μM) is given as “reversed”. Besides, the “effect on the anti-allodynic and anti-hyperalgesic effects of TGF-β1 (10 ng)” value in test [3] (SB431542 100 pmol i.t., CCI mice) is “eliminated”. Further, the “effect on the TGF-β1 (10 ng/mL) blockade of sEPSC increases” value in test [4] (SB431542 10 μM) is recorded as “abrogated”.

Consider `Clc1cccc(Cl)c1N=C1NCCN1` [clonidine], for which, in test [5], the “time in chamber paired with drug versus chamber paired with vehicle (CPP)” value is “spent more time”.

As to “CXCL12: chemokine, ligand of CXCR4, purchased from R&D”, the “migration of BMSCs in vitro” value in test [1] (CXCL12 0-100 ng/ml) was “induced migration”.

“TGF-β1: exogenous recombinant TGF-β1 purchased from R&D, given intrathecally or superfused”: in test [2] (TGF-β1 2 or 10 ng/mL), the “CCI-induced increase in spike frequency in small-sized DRG neurons” value is “dose-dependently suppressed” and the “time to suppression of the spike frequency increase” value lay in the range of 2 to 5 min. In addition, the “duration of reversal of PAX-induced mechanical allodynia following injection” value in test [6] is 3 h. Also, in test [3] (i.t. TGF-β1), the “late-phase neuropathic pain on post-CCI day 21” value is on record as “effectively inhibited”. For the same molecule, the “mechanical allodynia and thermal hyperalgesia at 5 days after CCI” value in test [3] (i.t. TGF-β1 2 ng and 10 ng) is “dose-dependently inhibited”. Besides, the “time after which the reversal of allodynia/hyperalgesia recovered” value in test [3] (i.t. TGF-β1 2 and 10 ng, 5 days after CCI) is given as 24 h. The “sEPSC frequency and amplitude in sham mice” value in test [4] (superfusion 10 ng/mL) was “no effects”. Moreover, the “time to blockade of CCI-induced sEPSC increases” value in test [4] (superfusion 2 or 10 ng/mL) is on record as 2 min. In test [4] (superfusion 2 or 10 ng/mL, slices from CCI mice (4 d)), the “CCI-induced increases in sEPSC frequency and amplitude” value is listed as “blocked”.

Turning to TNF-α, the “IL-10 release of BMSCs on exposure (increase)” value in test [7] is listed as “not”. The “TGF-β1 release of BMSCs on exposure” value in test [8] is “significantly increased”.
